# In US20250230435A1, “METHODS OF TREATMENT OF GNAQ AND GNA11 DRIVEN DISEASE” (THE FRANCIS CRICK INSTITUTE LIMITED, priority 2022, published 2025):
# Entries after “also recorded” stand apart in the source; their conditions may differ.
# Assays:
# Type in all cases: cell-based, human
# TIME GNAQR183Q cells [1] = assay: Fluo-8 AM assay, thrombin-induced intracellular calcium, GNAQ variant cells; conditions: 1 μM for 20 minutes, thrombin 1 U/ml
# Procedure: (§1) FIG. 3—CRAC channel inhibition and variant-specific siRNAs rescue aberrant calcium signalling in variant cells. A-B. TIME-GNAQ^WT (A) or −GNAQ^R183Q (B) were loaded with intracellular calcium probe Fluo-8 and treated for 20 minutes with vehicle or 1 μM […]. Following treatment, cells were stimulated with thrombin 1 U/ml and fluorescence recorded for 300 seconds. The graphs represent an avarage of three independent experiments performed in technical quadruplicates. C. Means +/−SD deviation of areas under the curve calculated from three experiments summarised in […]. Statistical comparisons were performed by two-tailed paired t test (n.s=not statistically significant, * p=0.0284). […] IP1 concentration was measured 48 hours after transfection and shown as mean +/−SD of three independent experiments. […] TIME-GNAQ p.(R183Q); NFAT-Luc were transfected with non-target siRNA (siSCRA) or two siRNAs for specific silencing of the variant GNAQ allele (siGNAQmut 1 and 3) and luciferase reporter activity was measured 48 hours after transfection in complete medium or after four hours of starvation, shown as mean +/−SD of % change of cells transfected with mock in three independent experiments. […]
# UPMM1 UM cell line = assay: Fluo-8 assay, LTD4-induced intracellular calcium in UPMM1; conditions: UPMM1, Fluo-8, 1, 3 or 10 μM, leukotriene D4 stimulation
# Procedure: (§2) FIG. 10—GNAQ and CRAC inhibition in uveal melanoma cells. […] UPMM1 cells were non-transfected or transfected with non-target control siRNA (siSCRA) or with 2 distinct GNAQR183Q-mutant specific siRNAs (siGNAQmut3 and siGNAQmut6) and expression of the mutant allele was measured by using GNAQR183Q-mutant specific primers previously validated (forward primer: […] (SEQ ID NO:25); reverse primer: […] (SEQ ID NO:26). B. Transfection with siRNAs silencing GNAQ mutant allele reduced GPCR ligand-induced calcium intra-cellular accumulation. Cells loaded with Fluo-8 calcium marker were stimulated by the GPCR ligand leukotriene D4 (LTD4) and fluorescence was recorded over the time. C. […] Cells loaded with Fluo-8 calcium probe were treated by CM4620 1, 3 or 10 μM, stimulated by the GPCR ligand leukotriene D4 (LTD4) and fluorescence was recorded over the time.
# TIME GNAQWT cells [2] = assay: Fluo-8 AM assay, thrombin-induced intracellular calcium, GNAQ WT cells; conditions: 1 μM for 20 minutes, thrombin 1 U/ml
# Procedure: as §1
# TIME GNAQR183Q cells [3] = assay: In vitro angiogenesis (endothelial tube formation) assay, GNAQ variant cells; conditions: 1 μM, in presence of thrombin 0.3 U/ml, vs vehicle
# Excerpt: (§3) FIG. 8—In vitro angiogenesis is disrupted by mutant GNAQ and rescued by CRAC channel inhibition. (A) Representative images captured with EVOS Floid Imaging System following Calcein AM staining during in vitro endothelial cell tube formation of TIME cells stably expressing either GNAQ WT or GNAQ R183Q. […] Statistical significance calculated using two-tailed unpaired t-test on three independent experiments (**** p<0.0001). […] Results shown as mean of a technical triplicate for each of 4 independent experiments. Statistical analysis performed by two-tailed paired t-test on four independent experiments (n.s=not statistically significant, * p=0.0125). […] Results shown as mean +/−SD of three independent experiments, and statistical analysis performed by two-tailed paired t-test (n.s=not statistically significant, * p=0.04).
# (§4) TIME endothelial cell models were used to assess angiogenesis using a standard in vitro angiogenesis assay. […] Furthermore, thrombin GPCR activation disrupted angiogenesis in GNAQR183Q more than in GNAQWT (FIG. 8C).
# TIME GNAQWT cells [4] = assay: In vitro angiogenesis (endothelial tube formation) assay, GNAQ WT cells; conditions: 1 μM, in presence of thrombin 0.3 U/ml, vs vehicle
# Excerpt: as §3, §4
# GNAQR183Q mutant allele = assay: Expression of GNAQR183Q mutant allele in UPMM1, mutant-specific primers; conditions: UPMM1 cells
# Procedure: as §2
# [5] = test system: GNA11 c.547C>T, p.(R183C) allele; assay: Western blot knock-down of HA-tagged Gα11 in TIME cells expressing wild-type or p.R183C; conditions: 25 nM siRNA, 24 h after transfection, TIME cells stably expressing wild-type or p.R183C HA-tagged Gα11
# Procedure: (§5) FIG. 5—Designing and testing siRNA specific for GNAQ c.548G>A, p.(R183Q) A. Schematic representation of the 6 siRNAs designed to target specifically GNAQ c.548G>A allele. B. TIME cells stably expressing either wild-type or p.R183Q HA-tagged Gαq were transfected by 50 nM siRNAs targeting GNAQ c.548G>A, p.(R183Q) allele and analysed by western-blot 24 h after transfection. […] C. (average of three experiments, * p<0.05). D. Schematic representation of the 6 siRNAs designed to target specifically GNA11 c.547C>T p.(R183C). E. TIME cells stably expressing either wild-type or p.R183C HA-tagged Gα11 were transfected by 25 nM siRNAs targeting GNA11 c.547C>T, p.(R183C) allele and analysed by western-blot 24 h after transfection. […] (average of three experiments, * p<0.05).
# (§6) hTERT-immortalised microvascular endothelial cells (TIME-ATCC CRL-4025TM, “TIME” cells) and their transgenic derivatives were maintained in EBMTM-2 Endothelial Cell Growth Basal Medium-2 (Lonza CC-3156), supplemented with EGMTM-2 BulletKit (Lonza CC-3162) and 3% fetal bovine serum (Gibco).
# (§7) TIME cells were transduced with lentiviral vectors to induce stable expression of HA-tagged forms of GNAQ WT, GNAQ p.(R183Q), GNA11 WT, GNA11 p.(R183C) cDNAs (FIG. 4), and we confirmed presence of the mutations in the genomic DNA by Sanger sequencing (FIG. 4B). […]
# [6] = test system: GNAQ c.548G>A, p.(R183Q) allele; assay: Western blot knock-down of HA-tagged Gαq in TIME cells expressing wild-type or p.R183Q; conditions: 50 nM siRNA, 24 h after transfection, TIME cells stably expressing wild-type or p.R183Q HA-tagged Gαq
# Procedure: as §5, §6, §7
molecule,measurement,setting,value
Cc1cccc(F)c1C(=O)Nc1cnc(-c2cc3c(cc2Cl)OC(F)(F)O3)cn1 [CM4620],"thrombin-induced calcium signalling, GNAQ-variant cells",TIME GNAQR183Q cells [1],inhibits the variant cell response; also recorded: markedly rescuing the prolonged calcium intracellular peak
same,GPCR ligand (LTD4)-induced accumulation of intracellular calcium,UPMM1 UM cell line,reduced the GPCR ligand-induced accumulation of intracellular calcium
same,"thrombin-induced calcium signalling, GNAQ WT cells",TIME GNAQWT cells [2],limited effects
same,"tubule formation (total length of the network), GNAQR183Q",TIME GNAQR183Q cells [3],improved tubule formation
same,"tubule formation (total length of the network), GNAQWT",TIME GNAQWT cells [4],no statistically significant difference; also recorded: not GNAQWT
"AGAGUUCAAGUCCCCACCA[dT][dT] (antisense UGGUGGGGACUUGAACUCU; dTdT overhangs, chemistry not fully specified) [siGNAQmut #6, siRNA to GNAQ c.548G>A p.(R183Q)]",expression of the GNAQR183Q mutant allele,GNAQR183Q mutant allele,reduced expression of the mutant allele
"CUGCGGGUCUGCGUGCCCA[dT][dT] (antisense UGGGCACGCAGACCCGCAG; dTdT overhangs, chemistry not fully specified) [siGNA11mut #4, siRNA to GNA11 c.547C>T p.(R183C)]",specific knock-down of variant Gα11 protein over wild-type (western blot),[5],specific knock-down of variant protein over wild-type counterparts
"CUUAGAGUUCAAGUCCCCA[dT][dT] (antisense GGGGACUUGAACUCUAAGC; dTdT overhangs, chemistry not fully specified) [siGNAQmut #3, siRNA to GNAQ c.548G>A p.(R183Q)]",specific knock-down of variant Gαq protein over wild-type (western blot),[6],specific knock-down of variant protein over wild-type counterparts
same,expression of the GNAQR183Q mutant allele,GNAQR183Q mutant allele,reduced expression of the mutant allele
"UGCUUAGAGUUCAAGUCCC[dT][dT] (antisense GGGACUUGAACUCUAAGCA; dTdT overhangs, chemistry not fully specified) [siGNAQmut #1, siRNA to GNAQ c.548G>A p.(R183Q)]",specific knock-down of variant Gαq protein over wild-type (western blot),[6],specific knock-down of variant protein over wild-type counterparts
